ChEMBL document CHEMBL1133572, “Protease inhibitors: current status and future prospects” (J Med Chem, 2000)

What was measured:
Cricetinae gen. sp. [1] = experiment: Inhibition against at the dose of 30 mg/kg after 30 minutes.; type: functional, Cricetulus griseus; conditions: 0.5 h
[2] = target: Neutrophil elastase (Homo sapiens) (UniProt P08246); experiment: Inhibition of elastase.
[3] = Half life.; type: ADME
Cricetinae gen. sp. [4] = experiment: Inhibition against at the dose of 30 mg/kg after 5 hr.; type: functional, Cricetulus griseus
Neprilysin = target: T1, Neprilysin (Rattus norvegicus, UniProt P07861); experiment: Inhibitory activity against neutral Endopeptidase
T1 sequence (P07861 whole entry): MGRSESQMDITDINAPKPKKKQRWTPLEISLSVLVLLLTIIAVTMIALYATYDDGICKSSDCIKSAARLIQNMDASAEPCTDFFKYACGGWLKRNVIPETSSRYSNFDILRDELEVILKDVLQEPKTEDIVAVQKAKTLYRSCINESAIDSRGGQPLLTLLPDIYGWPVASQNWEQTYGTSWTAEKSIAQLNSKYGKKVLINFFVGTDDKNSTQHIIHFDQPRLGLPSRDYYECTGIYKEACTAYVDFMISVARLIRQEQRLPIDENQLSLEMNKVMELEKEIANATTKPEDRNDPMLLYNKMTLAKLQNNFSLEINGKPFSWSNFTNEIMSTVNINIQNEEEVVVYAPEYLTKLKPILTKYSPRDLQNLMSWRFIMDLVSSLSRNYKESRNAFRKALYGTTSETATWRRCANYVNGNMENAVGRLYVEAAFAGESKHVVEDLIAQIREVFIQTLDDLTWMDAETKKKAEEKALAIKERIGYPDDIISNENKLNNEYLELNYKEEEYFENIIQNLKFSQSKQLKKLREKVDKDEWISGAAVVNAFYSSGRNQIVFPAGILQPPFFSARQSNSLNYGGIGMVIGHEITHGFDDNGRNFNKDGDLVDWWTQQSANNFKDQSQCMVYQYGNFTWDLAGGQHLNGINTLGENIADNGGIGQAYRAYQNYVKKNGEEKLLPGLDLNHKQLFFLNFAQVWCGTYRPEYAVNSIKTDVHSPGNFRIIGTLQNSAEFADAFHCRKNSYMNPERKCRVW

Cathepsin D [5] = target: T2, Cathepsin D (Homo sapiens, UniProt P07339)
Target sequence in this assay (P07339 65-162 limits assumed): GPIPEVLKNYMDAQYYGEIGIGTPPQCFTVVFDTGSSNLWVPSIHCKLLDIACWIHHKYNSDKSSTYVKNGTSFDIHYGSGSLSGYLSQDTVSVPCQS
Target sequence in this assay (P07339 169-412 limits assumed): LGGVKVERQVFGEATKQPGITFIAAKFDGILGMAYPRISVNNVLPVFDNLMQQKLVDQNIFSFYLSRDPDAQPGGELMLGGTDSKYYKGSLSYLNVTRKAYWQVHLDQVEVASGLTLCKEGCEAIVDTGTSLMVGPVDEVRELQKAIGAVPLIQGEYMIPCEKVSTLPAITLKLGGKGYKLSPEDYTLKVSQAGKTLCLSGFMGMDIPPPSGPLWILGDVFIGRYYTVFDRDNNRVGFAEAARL

[6] = Tmax value of the compound; type: ADME
[7] = Oral bioavailability in dog; type: ADME, organism-based, Canis lupus familiaris; conditions: in vivo
[8] = Cmax value at the period of 800 mg po for every 8 hr.; type: ADME, organism-based; design: dose 800 mg, route oral; conditions: in vivo
[9] = oral bioavailability in monkeys; type: ADME, organism-based; conditions: simiiformes, in vivo, read-out: Bioavailabiility
[10] = Partition coefficient (logP); type: physicochemical; conditions: octanol/water
[11] = Oral bioavailability in rat; type: ADME, organism-based; conditions: in vivo
Cathepsin B = Cathepsin B (Homo sapiens, UniProt P07858); experiment: Inhibitory activity against cathepsin B.
[12] = target: T3, Human rhinovirus A protease (Human rhinovirus sp., UniProt Q4U254); experiment: Effective concentration against human rhinovirus-14 3C.
T3 sequence (Q4U254 whole entry): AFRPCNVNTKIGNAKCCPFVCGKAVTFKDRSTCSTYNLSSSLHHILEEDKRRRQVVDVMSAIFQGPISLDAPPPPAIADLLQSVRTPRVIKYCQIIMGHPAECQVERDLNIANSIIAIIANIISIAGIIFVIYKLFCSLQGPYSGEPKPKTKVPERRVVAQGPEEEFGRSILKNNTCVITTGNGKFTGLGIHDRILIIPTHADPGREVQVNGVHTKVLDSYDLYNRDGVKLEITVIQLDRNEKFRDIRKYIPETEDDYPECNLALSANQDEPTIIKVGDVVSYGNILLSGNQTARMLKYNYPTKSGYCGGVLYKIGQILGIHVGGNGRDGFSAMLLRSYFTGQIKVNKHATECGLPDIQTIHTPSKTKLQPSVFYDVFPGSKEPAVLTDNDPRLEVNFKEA

[13] = target: T3, Human rhinovirus A protease; experiment: The binding affinity against HRV-143C protease.
[14] = target: T4, Human rhinovirus A protease (Human rhinovirus sp.) (UniProt Q4U254); experiment: Toxic concentration ragainst HRV-143C protease in cultured cells infected by HRV.; type: cell-based
T4 sequence (whole entry): T3 sequence (Q4U254 whole entry)

[15] = Inhibitory concentration against plasmepsin; design: species or system Plasmodium falciparum
Cathepsin D [16] = target: T2, Cathepsin D; remark: listed apart in the source
Target sequence in this assay (P07339 65-162 limits assumed): as the sequence (P07339 65-162 limits assumed) above
Target sequence in this assay (P07339 169-412 limits assumed): as the sequence (P07339 169-412 limits assumed) above

[17] = target: T5, Matrix metalloproteinase-9 (Homo sapiens, UniProt P14780)
T5 sequence (P14780 whole entry): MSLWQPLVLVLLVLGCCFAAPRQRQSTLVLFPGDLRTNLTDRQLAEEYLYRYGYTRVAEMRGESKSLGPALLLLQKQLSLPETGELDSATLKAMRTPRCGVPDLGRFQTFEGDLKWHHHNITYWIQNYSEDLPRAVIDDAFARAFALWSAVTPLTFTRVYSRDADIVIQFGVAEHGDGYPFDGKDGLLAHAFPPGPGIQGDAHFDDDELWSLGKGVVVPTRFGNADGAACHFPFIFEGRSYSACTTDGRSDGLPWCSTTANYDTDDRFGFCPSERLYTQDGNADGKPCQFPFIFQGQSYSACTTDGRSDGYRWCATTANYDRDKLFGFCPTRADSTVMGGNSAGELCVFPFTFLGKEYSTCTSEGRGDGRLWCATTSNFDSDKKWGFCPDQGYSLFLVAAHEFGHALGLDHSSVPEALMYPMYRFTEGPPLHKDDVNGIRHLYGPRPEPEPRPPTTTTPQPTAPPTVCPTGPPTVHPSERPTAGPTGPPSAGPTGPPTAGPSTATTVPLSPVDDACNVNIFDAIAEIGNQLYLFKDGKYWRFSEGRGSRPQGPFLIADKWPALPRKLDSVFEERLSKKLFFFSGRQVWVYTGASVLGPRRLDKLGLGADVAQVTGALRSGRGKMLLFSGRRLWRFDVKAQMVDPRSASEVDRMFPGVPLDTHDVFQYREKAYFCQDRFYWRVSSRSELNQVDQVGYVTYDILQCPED

Interstitial collagenase [18] = target: T6, Interstitial collagenase (Homo sapiens, UniProt P03956)
T6 sequence (P03956 whole entry): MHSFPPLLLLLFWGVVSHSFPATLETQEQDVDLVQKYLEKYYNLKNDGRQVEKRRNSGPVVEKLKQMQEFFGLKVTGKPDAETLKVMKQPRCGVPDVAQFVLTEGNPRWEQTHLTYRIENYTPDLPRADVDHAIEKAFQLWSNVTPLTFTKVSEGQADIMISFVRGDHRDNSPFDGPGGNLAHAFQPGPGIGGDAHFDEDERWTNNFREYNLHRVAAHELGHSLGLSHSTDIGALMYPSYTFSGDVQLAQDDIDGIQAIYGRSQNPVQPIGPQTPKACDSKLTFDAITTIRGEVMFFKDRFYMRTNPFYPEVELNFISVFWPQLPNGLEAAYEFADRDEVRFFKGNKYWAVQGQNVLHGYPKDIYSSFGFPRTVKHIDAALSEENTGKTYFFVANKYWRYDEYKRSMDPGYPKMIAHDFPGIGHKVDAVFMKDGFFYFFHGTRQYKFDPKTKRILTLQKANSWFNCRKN

Collagenase 3 = Collagenase 3 (Homo sapiens, UniProt P45452)
[19] = target: 72 kDa type IV collagenase (Homo sapiens, UniProt P08253)
Sequence of 72 kDa type IV collagenase (P08253 whole entry): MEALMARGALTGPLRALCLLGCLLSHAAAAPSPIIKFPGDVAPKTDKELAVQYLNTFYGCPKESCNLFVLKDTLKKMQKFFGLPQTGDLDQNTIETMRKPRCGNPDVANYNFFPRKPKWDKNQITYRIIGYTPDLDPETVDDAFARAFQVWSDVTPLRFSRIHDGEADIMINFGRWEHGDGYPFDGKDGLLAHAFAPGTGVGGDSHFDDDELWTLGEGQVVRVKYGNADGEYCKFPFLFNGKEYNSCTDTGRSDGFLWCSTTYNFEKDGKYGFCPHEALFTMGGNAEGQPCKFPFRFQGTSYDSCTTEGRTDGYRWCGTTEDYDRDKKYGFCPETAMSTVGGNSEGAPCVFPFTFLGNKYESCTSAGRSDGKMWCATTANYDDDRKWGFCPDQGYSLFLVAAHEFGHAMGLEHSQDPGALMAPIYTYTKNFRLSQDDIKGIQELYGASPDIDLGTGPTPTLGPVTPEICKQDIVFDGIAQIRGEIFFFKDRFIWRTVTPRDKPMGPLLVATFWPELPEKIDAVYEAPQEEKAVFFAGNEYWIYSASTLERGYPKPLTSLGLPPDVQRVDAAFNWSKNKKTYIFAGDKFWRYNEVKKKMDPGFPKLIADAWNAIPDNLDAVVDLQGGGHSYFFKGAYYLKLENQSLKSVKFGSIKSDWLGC

Matrilysin = Matrilysin (Homo sapiens, UniProt P09237); experiment: Inhibition of matrix metalloprotease-7 (MMP-7).
Sequence of Matrilysin (P09237 whole entry): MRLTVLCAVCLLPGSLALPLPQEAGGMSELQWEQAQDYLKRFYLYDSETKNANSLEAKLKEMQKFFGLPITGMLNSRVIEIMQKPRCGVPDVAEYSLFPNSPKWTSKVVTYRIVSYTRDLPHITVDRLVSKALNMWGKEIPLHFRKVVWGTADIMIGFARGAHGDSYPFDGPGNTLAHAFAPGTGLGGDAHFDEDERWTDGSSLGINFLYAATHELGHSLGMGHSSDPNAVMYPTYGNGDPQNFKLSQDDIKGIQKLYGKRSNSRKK

[20] = target: T5, Matrix metalloproteinase-9; experiment: Inhibition of matrix metalloprotease-9 (MMP-9).
Interstitial collagenase [21] = target: T6, Interstitial collagenase; experiment: Inhibition of matrix metalloprotease-1 (MMP-1).
[22] = Distribution coefficient at pH 7.4; type: physicochemical; conditions: octanol/water
Renin = target: T7, Renin (Homo sapiens, UniProt P00797)
T7 sequence (P00797 whole entry): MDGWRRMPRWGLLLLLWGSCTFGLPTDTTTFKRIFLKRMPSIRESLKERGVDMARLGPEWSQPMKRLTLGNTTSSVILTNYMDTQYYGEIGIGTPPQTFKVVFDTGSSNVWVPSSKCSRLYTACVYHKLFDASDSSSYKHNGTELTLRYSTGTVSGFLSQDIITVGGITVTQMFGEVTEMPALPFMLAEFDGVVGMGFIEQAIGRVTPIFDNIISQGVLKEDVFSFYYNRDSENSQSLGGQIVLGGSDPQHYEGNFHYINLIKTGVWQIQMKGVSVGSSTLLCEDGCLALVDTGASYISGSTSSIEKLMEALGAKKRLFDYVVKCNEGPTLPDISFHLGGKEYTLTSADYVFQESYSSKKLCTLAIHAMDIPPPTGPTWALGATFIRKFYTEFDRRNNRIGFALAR

Neutrophil elastase = Neutrophil elastase (Homo sapiens, UniProt P08246); experiment: Binding affinity against Elastase
Sequence of Neutrophil elastase (P08246 whole entry): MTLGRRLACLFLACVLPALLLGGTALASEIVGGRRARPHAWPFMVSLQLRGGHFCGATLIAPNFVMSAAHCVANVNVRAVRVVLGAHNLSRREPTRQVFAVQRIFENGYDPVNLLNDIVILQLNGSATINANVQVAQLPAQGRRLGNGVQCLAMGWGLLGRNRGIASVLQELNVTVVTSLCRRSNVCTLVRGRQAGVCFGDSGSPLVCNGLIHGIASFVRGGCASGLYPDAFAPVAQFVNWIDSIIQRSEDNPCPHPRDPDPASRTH

Rattus norvegicus = species: Rattus norvegicus; experiment: The inhibition of lung hemorrhage in rats; type: organism-based; conditions: in vivo
[23] = Inhibitory activity in cell culture against both HIV-1 and HIV-2 viruses; type: functional
Cricetinae gen. sp. [24] = experiment: Inhibitory concentration against elastase; type: functional, Cricetulus griseus; conditions: read-out: ID50 (the source's name)
[25] = Dose-dependent anticoagulant activity of the compound.; type: functional
Plasmepsin II = Plasmepsin II (Plasmodium falciparum, UniProt P46925); experiment: Binding affinity for plasmepsin-2.
Sequence of Plasmepsin II (P46925 whole entry): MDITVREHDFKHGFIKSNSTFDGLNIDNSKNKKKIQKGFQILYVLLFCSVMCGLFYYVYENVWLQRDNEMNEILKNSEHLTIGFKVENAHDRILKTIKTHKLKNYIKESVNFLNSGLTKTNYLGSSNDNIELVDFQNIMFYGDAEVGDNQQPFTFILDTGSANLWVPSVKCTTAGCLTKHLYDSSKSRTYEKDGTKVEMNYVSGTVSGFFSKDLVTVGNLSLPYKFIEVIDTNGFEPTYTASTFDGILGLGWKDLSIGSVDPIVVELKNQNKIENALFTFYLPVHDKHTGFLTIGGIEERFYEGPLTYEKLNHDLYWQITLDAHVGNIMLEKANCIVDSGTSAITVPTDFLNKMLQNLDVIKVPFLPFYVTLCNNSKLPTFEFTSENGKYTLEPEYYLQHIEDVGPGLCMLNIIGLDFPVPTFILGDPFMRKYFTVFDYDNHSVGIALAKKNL

Cathepsin D [26] = target: T2, Cathepsin D; experiment: Binding affinity against cathepsin D.
[27] = Inhibitory concentration required to reduce hemorrhage by 50%at the dose of 15 n mol /animal,72 hr prior to elastase.; type: functional
[28] = oral bioavailability in Monkeys; type: ADME, organism-based; conditions: simiiformes, in vivo, read-out: Bioavailabiility
Prothrombin = Prothrombin (Homo sapiens, UniProt P00734)

Sequence of Neutrophil elastase (Homo sapiens) (P08246 whole entry): as the sequence (P08246 whole entry) above

Structure (SMILES): CC[C@@H](NC(=O)N1C(=O)[C@](C)(CC)[C@@H]1Oc1ccc(CC(=O)O)cc1)c1ccccc1
- inhibition in vivo at 30 mg/kg (Cricetinae gen. sp. [1]): 98%
- K obs / 1 [2]: 91000 M⁻¹ s⁻¹
- half-life [3]: 5 h
- inhibition in vivo at 30 mg/kg (Cricetinae gen. sp. [4]): 51%

Structure (SMILES): C[C@H](NC(=O)[C@@H](CS)Cc1ccc2c(c1)OCO2)C(=O)O
- Ki (Neprilysin): 0.0056 µM

Structure (SMILES): COc1cc(Br)c(OCC(=O)NC(Cc2cccc(Oc3ccccc3)c2)[C@@H](O)CN(CCc2ccc(Cl)cc2Cl)C(=O)CCN2C(=O)c3ccccc3C2=O)cc1OC (stereo not given in full)
- Ki (Cathepsin D [5]): 0.0007 µM

Structure (SMILES): CC(C)(C)NC(=O)[C@@H]1CN(Cc2cccnc2)CCN1C[C@@H](O)C[C@@H](Cc1ccccc1)C(=O)N[C@H]1c2ccccc2C[C@H]1O.O
- Tmax [6]: 1 h
- bioavailability ([7]; read-out: Bioavailabiility): 90%
- Cmax [8]: 12 µM

Structure (SMILES): Cc1c(O)cccc1C(=O)N[C@@H](CSc1ccccc1)[C@H](O)CN1C[C@H]2CCCC[C@H]2C[C@H]1C(=O)NC(C)(C)C
- bioavailability [7]: 31%
- bioavailability [9]: 34%
- logP [10]: 4.1
- bioavailability [11]: 52%

Structure (SMILES): Cc1ccc(S(=O)(=O)N2CC(N=[N+]=[N-])CC2C(=O)N[C@H](C=O)Cc2ccccc2)cc1 (stereo not given in full)
- IC50 (Cathepsin B): > 10 µM

Structure (SMILES): NC(=O)c1ccc2c(c1)C(=O)C(=O)N2Cc1ccc2ccsc2c1
- EC50 [12]: > 5.6 µM
- Ki [13]: 0.002 µM
- TC50 [14]: 5.6 µM

Structure (SMILES): CCCCNC(=O)C[C@H](O)[C@H](CC(C)C)NC(=O)[C@@H](NC(=O)COc1ccc2ccccc2c1)c1ccccc1
- IC50 [15]: 5.8 µM
- IC50 (Cathepsin D [16]): 0.11 µM

Structure (SMILES): O=C(C[C@H](CSc1ccccc1)C(=O)O)c1ccc(-c2ccc(Cl)cc2)cc1 [TANOMASTAT]
- Ki [17]: 0.301 µM
- Ki (Interstitial collagenase [18]): 5 µM
- Ki (Collagenase 3): 1.47 µM
- Ki [19]: 0.011 µM

Structure (SMILES): COc1ccc(S(=O)(=O)N2CC(C)(C)CN(S(=O)(=O)c3ccc(OC)cc3)C2C(=O)NO)cc1
- Ki (Matrilysin): 0.03 µM
- Ki [20]: 0.03 µM
- Ki (Interstitial collagenase [21]): 0.024 µM

Structure (SMILES): COc1ccccc1COCCCOc1ccc(C2CCNCC2OCc2cccc3c2NCCC3)cc1 (stereo not given)
- logD [22]: 1.9
- IC50 (Renin): 0.037 µM

Structure (SMILES): CC(C)C(NC(=O)C1CCCN1C(=O)[C@@H](NC(=O)c1ccc(C(=O)C2CCOCC2)cc1)C(C)C)C(=O)C(F)(F)C(F)(F)F (stereo not given in full)
- Ki (Neutrophil elastase): 0.02 µM
- Inhibition (Rattus norvegicus): 69%

Structure (SMILES): CC(C)(C)NC(=O)[C@@H]1C[C@@H]2CCCC[C@@H]2CN1C[C@@H](O)[C@H](Cc1ccccc1)NC(=O)[C@H](CC(N)=O)NC(=O)c1ccc2ccccc2n1
- EC50 [23]: 0.03 µM

Structure (SMILES): CC(C)(C)C(=O)Oc1ccc(S(=O)(=O)Nc2ccccc2C(=O)NCC(=O)O)cc1
- ED50 (Cricetinae gen. sp. [24]): 0.082 mg/kg

Structure (SMILES): CN[C@H](Cc1ccccc1)C(=O)N1CCC[C@H]1C(=O)N[C@H](C=O)CCCNC(=N)N.O=S(=O)(O)O [EFEGATRAN SULFATE]
- Anticoagulant activity [25]: >0.63 mg/kg/h

Structure (SMILES): CC(C)[C@H](NC(=O)CC(C)(C)C)C(=O)NC1CCCCNC(=O)CC[C@H](C(=O)NCC(N)=O)NC(=O)[C@H](C(C)C)NC(=O)C[C@H](O)[C@@H](Cc2ccccc2)NC1=O (stereo not given in full)
- IC50 (Plasmepsin II): 1.5 µM
- Ki (Cathepsin D [26]): 0.0014 µM

Structure (SMILES): CC(C)C(NC(=O)c1ccc(S(=O)(=O)NC(=O)c2ccc(Cl)c(S(=O)(=O)NC(=O)CSc3cc(C(C)(C)C)c(O)c(C(C)(C)C)c3)c2)cc1)C(=O)N1Cc2ccccc2C1C(=O)NC(C(=O)C(F)(F)F)C(C)C (stereo not given)
- IC50 [27]: 0.026 µM

Structure (SMILES): N[C@H]1CC[C@H](CNC(=O)[C@@H]2CCCN2C(=O)C2(O)c3ccccc3-c3ccccc32)CC1
- bioavailability [7]: 74%
- bioavailability [28]: 39%
- half-life [3]: 4 h

Structure (SMILES): N=C(N)N1CCC[C@H](C(=O)NC[C@@H]2CCCN2C(=O)[C@H](CO)NS(=O)(=O)c2ccc3ccccc3c2)C1
- Ki (Prothrombin): 0.0036 µM
